Results taken from PMC5852267, “Influence of quaternary cation compound on the size of the Escherichia coli small multidrug resistance protein, EmrE” (Biochemistry and Biophysics Reports, 2018).

The compounds below were run against T1, EmrE (EmrE-Myc-His6; His6-myc-EmrE) (Escherichia coli, UniProt P23895) (assay: biochemical). Conditions: not given.
T1 construct: plasmid pTZEmrEmH6; E. coli C43(DE3); dimer considered minimal functional unit
T1 sequence (P23895 whole entry): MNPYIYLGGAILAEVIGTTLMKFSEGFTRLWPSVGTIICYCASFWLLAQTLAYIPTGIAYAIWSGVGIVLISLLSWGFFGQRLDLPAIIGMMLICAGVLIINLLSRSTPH
Type: binding
For `CN(C)c1ccc(C(=C2C=CC(=[N+](C)C)C=C2)c2ccc(N(C)C)cc2)cc1` [CV, Crystal Violet], the Kd was 16 ± 5.7 µM. Work on `Cc1cc(N)c2ccccc2[n+]1CCCCCCCCCC[n+]1c(C)cc(N)c2ccccc21` [DC, Dequalinium chloride] yielded a Kd of 11 ± 2.2 µM. `CC[n+]1c(-c2ccccc2)c2cc(N)ccc2c2ccc(N)cc21` [EB, Ethidium bromide] gave a Kd of 1 ± 0.3 µM. In the case of `Nc1ccc2cc3ccc(N)cc3nc2c1` [PRO, Proflavine], the Kd is reported as 14 ± 5 µM. For `CCN=c1cc2oc3cc(NCC)c(C)cc3c(-c3ccccc3C(=O)OCC)c-2cc1C` [RH, Rhodamine 6 G], the Kd was 12 ± 1.4 µM.

Same assay, conditions: read-out: Kd
`CCCCCCCCCCCCCCCC[N+](C)(C)Cc1ccccc1` [CTC, Cetalkonium chloride (Banjela) (16 Chain)] showed a Kd of 407 ± 133 µM. In the case of `C[n+]1ccc(-c2cc[n+](C)cc2)cc1` [MV, Methyl Viologen], the Kd is reported as 179 ± 19.9 µM. Compound `c1ccc([P+](c2ccccc2)(c2ccccc2)c2ccccc2)cc1` [TPP, Tetraphenylphosphonium chloride] has a Kd of 5 ± 3.7 µM.
